Experimental data: US7851474B2, “Dipiperazinyl ketones and related analogues” (Neurogen Corporation, priority 2005, dated 2010)

What follows are compounds tested against T1, chimeric human H3 receptor (Homo sapiens, UniProt Q9Y5N1, E19D) (assay: Chimeric human H3 receptor screening GTP binding assay (inhibition of histamine-stimulated GTP-gamma35S binding, Example 8)). Conditions: 1 h; "+" in Ki of Table II; assay of Example 8; read-out: percent inhibition of agonist-induced GTP-gammaS binding to H3.
T1 construct: made in house; host or cells: Sf9 insect cells (baculovirus infection); P2 membrane preparation
Type: biochemical
Procedure, shortened: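 Data are percent inhibition of the 1 μM histamine-stimulated GTP-gamma35S (125 pM) binding, after non-specific binding (10 uM GTP-gammaS) is subtracted. Test compound at 4 μM. Incubation was 60 min at room temperature with Sf9 membranes bearing receptor plus G-protein subunits, buffer pH 7.4 with 10 μM GDP, and filtration read-out.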

T1 sequence (Q9Y5N1 with tags, fused parts or gaps E19D): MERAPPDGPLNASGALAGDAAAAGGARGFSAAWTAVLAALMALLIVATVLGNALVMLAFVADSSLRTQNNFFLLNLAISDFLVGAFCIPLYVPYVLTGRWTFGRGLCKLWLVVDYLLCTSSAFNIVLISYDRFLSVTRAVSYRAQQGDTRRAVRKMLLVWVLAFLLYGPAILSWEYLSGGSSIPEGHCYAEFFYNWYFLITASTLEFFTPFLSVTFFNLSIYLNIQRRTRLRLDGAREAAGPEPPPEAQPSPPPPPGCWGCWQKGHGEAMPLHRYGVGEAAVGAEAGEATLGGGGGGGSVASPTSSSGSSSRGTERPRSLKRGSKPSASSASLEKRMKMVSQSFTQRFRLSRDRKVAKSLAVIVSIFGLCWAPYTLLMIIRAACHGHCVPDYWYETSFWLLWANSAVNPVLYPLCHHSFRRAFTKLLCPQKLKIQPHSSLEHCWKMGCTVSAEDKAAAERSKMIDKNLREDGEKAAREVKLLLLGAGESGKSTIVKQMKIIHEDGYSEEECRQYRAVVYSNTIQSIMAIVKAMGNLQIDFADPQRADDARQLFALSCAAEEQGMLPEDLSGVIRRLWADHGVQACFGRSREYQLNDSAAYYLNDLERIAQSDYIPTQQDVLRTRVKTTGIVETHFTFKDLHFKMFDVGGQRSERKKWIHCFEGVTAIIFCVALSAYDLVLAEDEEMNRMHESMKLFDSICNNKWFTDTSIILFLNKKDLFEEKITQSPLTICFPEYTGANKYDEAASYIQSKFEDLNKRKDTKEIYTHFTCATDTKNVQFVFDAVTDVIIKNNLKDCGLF

Row | SMILES | inhibition at 4 µM [%]
1 | O=C(/C=C/c1cccc2ccccc12)N1CCN(CC(=O)N2CCN(C3CCC3)CC2)CC1 [Compound 514, 1-cyclobutyl-4-({4-[(2E)-3-(1-naphthyl)prop-2-enoyl]piperazin-1-yl}acetyl)piperazine] | > 90
2 | COc1ccc(/C=C/C(=O)N2CCN(CC(=O)N3CCN(C4CCC4)CC3)CC2)c(OC)c1OC [Compound 515, 1-cyclobutyl-4-({4-[(2E)-3-(2,3,4-trimethoxyphenyl)prop-2-enoyl]piperazin-1-yl}acetyl)piperazine] | > 90
3 | O=C(/C=C/c1cccc(F)c1F)N1CCN(CC(=O)N2CCN(C3CCC3)CC2)CC1 [Compound 516, 1-cyclobutyl-4-({4-[(2E)-3-(2,3-difluorophenyl)prop-2-enoyl]piperazin-1-yl}acetyl)piperazine] | > 90
4 | CCOc1ccccc1CC(=O)N1CCN(CC(=O)N2CCN(C3CCC3)CC2)CC1 [Compound 533, 1-cyclobutyl-4-({4-[(2-ethoxyphenyl)acetyl]piperazin-1-yl}acetyl)piperazine] | > 90
5 | O=C(Cc1ccccc1F)N1CCN(CC(=O)N2CCN(C3CCC3)CC2)CC1 [Compound 534, 1-cyclobutyl-4-({4-[(2-fluorophenyl)acetyl]piperazin-1-yl}acetyl)piperazine] | > 90
6 | COc1ccccc1OCC(=O)N1CCN(CC(=O)N2CCN(C3CCC3)CC2)CC1 [Compound 535, 1-cyclobutyl-4-({4-[(2-methoxyphenoxy)acetyl]piperazin-1-yl}acetyl)piperazine] | > 90
7 | Cc1ccccc1OCC(=O)N1CCN(CC(=O)N2CCN(C3CCC3)CC2)CC1 [Compound 538, 1-cyclobutyl-4-({4-[(2-methylphenoxy)acetyl]piperazin-1-yl}acetyl)piperazine] | > 90
8 | Cc1ccccc1CC(=O)N1CCN(CC(=O)N2CCN(C3CCC3)CC2)CC1 [Compound 539, 1-cyclobutyl-4-({4-[(2-methylphenyl)acetyl]piperazin-1-yl}acetyl)piperazine] | > 90
9 | O=C(COc1ccc2ccccc2c1)N1CCN(CC(=O)N2CCN(C3CCC3)CC2)CC1 [Compound 540, 1-cyclobutyl-4-({4-[(2-naphthyloxy)acetyl]piperazin-1-yl}acetyl)piperazine] | > 90
10 | COc1cc(CC(=O)N2CCN(CC(=O)N3CCN(C4CCC4)CC3)CC2)cc(OC)c1OC [Compound 544, 1-cyclobutyl-4-({4-[(3,4,5-trimethoxyphenyl)acetyl]piperazin-1-yl}acetyl)piperazine] | > 90
11 | O=C(COc1ccc(Cl)c(Cl)c1)N1CCN(CC(=O)N2CCN(C3CCC3)CC2)CC1 [Compound 545, 1-cyclobutyl-4-({4-[(3,4-dichlorophenoxy)acetyl]piperazin-1-yl}acetyl)piperazine] | > 90
12 | O=C(Cc1ccc(Cl)c(Cl)c1)N1CCN(CC(=O)N2CCN(C3CCC3)CC2)CC1 [Compound 546, 1-cyclobutyl-4-({4-[(3,4-dichlorophenyl)acetyl]piperazin-1-yl}acetyl)piperazine] | > 90
13 | COc1ccc(CC(=O)N2CCN(CC(=O)N3CCN(C4CCC4)CC3)CC2)cc1OC [Compound 547, 1-cyclobutyl-4-({4-[(3,4-dimethoxyphenyl)acetyl]piperazin-1-yl}acetyl)piperazine] | > 90
14 | COc1cc(CC(=O)N2CCN(CC(=O)N3CCN(C4CCC4)CC3)CC2)cc(OC)c1 [Compound 548, 1-cyclobutyl-4-({4-[(3,5-dimethoxyphenyl)acetyl]piperazin-1-yl}acetyl)piperazine] | > 90
15 | O=C(Cc1cccc(F)c1)N1CCN(CC(=O)N2CCN(C3CCC3)CC2)CC1 [Compound 550, 1-cyclobutyl-4-({4-[(3-fluorophenyl)acetyl]piperazin-1-yl}acetyl)piperazine] | > 90
16 | COc1cccc(OCC(=O)N2CCN(CC(=O)N3CCN(C4CCC4)CC3)CC2)c1 [Compound 551, 1-cyclobutyl-4-({4-[(3-methoxyphenoxy)acetyl]piperazin-1-yl}acetyl)piperazine] | > 90
17 | COc1cccc(CC(=O)N2CCN(CC(=O)N3CCN(C4CCC4)CC3)CC2)c1 [Compound 552, 1-cyclobutyl-4-({4-[(3-methoxyphenyl)acetyl]piperazin-1-yl}acetyl)piperazine] | > 90

The remaining lines, values ahead:

Row | inhibition at 4 µM [%] | SMILES
18 | > 90 | COc1cccc(/C=C/C(=O)N2CCN(CC(=O)N3CCN(C4CCC4)CC3)CC2)c1OC [Compound 517, 1-cyclobutyl-4-({4-[(2E)-3-(2,3-dimethoxyphenyl)prop-2-enoyl]piperazin-1-yl}acetyl)piperazine]
19 | > 90 | COc1cc(OC)c(OC)cc1/C=C/C(=O)N1CCN(CC(=O)N2CCN(C3CCC3)CC2)CC1 [Compound 518, 1-cyclobutyl-4-({4-[(2E)-3-(2,4,5-trimethoxyphenyl)prop-2-enoyl]piperazin-1-yl}acetyl)piperazine]
20 | > 90 | O=C(/C=C/c1ccc(Cl)cc1Cl)N1CCN(CC(=O)N2CCN(C3CCC3)CC2)CC1 [Compound 519, 1-cyclobutyl-4-({4-[(2E)-3-(2,4-dichlorophenyl)prop-2-enoyl]piperazin-1-yl}acetyl)piperazine]
21 | > 90 | COc1ccc(/C=C/C(=O)N2CCN(CC(=O)N3CCN(C4CCC4)CC3)CC2)c(OC)c1 [Compound 520, 1-cyclobutyl-4-({4-[(2E)-3-(2,4-dimethoxyphenyl)prop-2-enoyl]piperazin-1-yl}acetyl)piperazine]
22 | > 90 | COc1ccc(OC)c(/C=C/C(=O)N2CCN(CC(=O)N3CCN(C4CCC4)CC3)CC2)c1 [Compound 521, 1-cyclobutyl-4-({4-[(2E)-3-(2,5-dimethoxyphenyl)prop-2-enoyl]piperazin-1-yl}acetyl)piperazine]
23 | > 90 | O=C(/C=C/c1c(Cl)cccc1Cl)N1CCN(CC(=O)N2CCN(C3CCC3)CC2)CC1 [Compound 522, 1-cyclobutyl-4-({4-[(2E)-3-(2,6-dichlorophenyl)prop-2-enoyl]piperazin-1-yl}acetyl)piperazine]
24 | > 90 | CCOc1ccccc1/C=C/C(=O)N1CCN(CC(=O)N2CCN(C3CCC3)CC2)CC1 [Compound 523, 1-cyclobutyl-4-({4-[(2E)-3-(2-ethoxyphenyl)prop-2-enoyl]piperazin-1-yl}acetyl)piperazine]
25 | > 90 | O=C(C=Cc1ccccc1F)N1CCN(CC(=O)N2CCN(C3CCC3)CC2)CC1 [Compound 524, 1-cyctobutyl-4-({4-[(2E)-3-(2-fluorophenyl)prop-2-enoyl]piperazin-1-yl}acetyl)piperazine]
26 | > 90 | COc1ccccc1/C=C/C(=O)N1CCN(CC(=O)N2CCN(C3CCC3)CC2)CC1 [Compound 525, 1-cyclobutyl-4-({4-[(2E)-3-(2-methoxyphenyl)prop-2-enoyl]piperazin-1-yl}acetyl)piperazine]
27 | > 90 | Cc1ccccc1/C=C/C(=O)N1CCN(CC(=O)N2CCN(C3CCC3)CC2)CC1 [Compound 526, 1-cyclobutyl-4-({4-[(2E)-3-(2-methylphenyl)prop-2-enoyl]piperazin-1-yl}acetyl)piperazine]
28 | > 90 | O=C(/C=C/c1ccc(Cl)c(Cl)c1)N1CCN(CC(=O)N2CCN(C3CCC3)CC2)CC1 [Compound 527, 1-cyclobutyl-4-({4-[(2E)-3-(3,4-dichlorophenyl)prop-2-enoyl]piperazin-1-yl}acetyl)piperazine]
29 | > 90 | COc1ccc(/C=C/C(=O)N2CCN(CC(=O)N3CCN(C4CCC4)CC3)CC2)cc1OC [Compound 528, 1-cyclobutyl-4-({4-[(2E)-3-(3,4-dimethoxyphenyl)prop-2-enoyl]piperazin-1-yl}acetyl)piperazine]
30 | > 90 | O=C(/C=C/c1ccc(F)cc1)N1CCN(CC(=O)N2CCN(C3CCC3)CC2)CC1 [Compound 529, 1-cyclobutyl-4-({4-[(2E)-3-(4-fluorophenyl)prop-2-enoyl]piperazin-1-yl}acetyl)piperazine]
31 | > 90 | COc1ccc(/C=C/C(=O)N2CCN(CC(=O)N3CCN(C4CCC4)CC3)CC2)cc1 [Compound 530, 1-cyclobutyl-4-({4-[(2E)-3-(4-methoxyphenyl)prop-2-enoyl]piperazin-1-yl}acetyl)piperazine]
32 | > 90 | O=C(/C=C/c1ccc(OCc2ccc(F)cc2)cc1)N1CCN(CC(=O)N2CCN(C3CCC3)CC2)CC1 [Compound 531, 1-cyclobutyl-4-({4-[(2E)-3-{4-[(4-fluorobenzyl)oxy]phenyl}prop-2-enoyl]piperazin-1-yl}acetyl)piperazine]
33 | > 90 | O=C(/C=C/c1ccccc1)N1CCN(CC(=O)N2CCN(C3CCC3)CC2)CC1 [Compound 532, 1-cyclobutyl-4-({4-[(2E)-3-phenylprop-2-enoyl]piperazin-1-yl}acetyl)piperazine]
34 | > 90 | COc1ncccc1C(=O)N1CCN(CC(=O)N2CCN(C3CCC3)CC2)CC1 [Compound 537, 1-cyclobutyl-4-({4-[(2-methoxypyridin-3-yl)carbonyl]piperazin-1-yl}acetyl)piperazine]
35 | > 90 | O=C(CN1CCN(C(=O)c2cccnc2Oc2ccccc2)CC1)N1CCN(C2CCC2)CC1 [Compound 542, 1-cyclobutyl-4-({4-[(2-phenoxypyridin-3-yl)carbonyl]piperazin-1-yl}acetyl)piperazine]
36 | > 90 | O=C(CN1CCN(C(=O)c2csc(-c3ccncc3)n2)CC1)N1CCN(C2CCC2)CC1 [Compound 543, 1-cyclobutyl-4-({4-[(2-pyridin-4-yl-1,3-thiazol-4-yl)carbonyl]piperazin-1-yl}acetyl)piperazine]
37 | > 90 | CCOc1ccsc1C(=O)N1CCN(CC(=O)N2CCN(C3CCC3)CC2)CC1 [Compound 549, 1-cyclobutyl-4-({4-[(3-ethoxy-2-thienyl)carbonyl]piperazin-1-yl}acetyl)piperazine]
